# Reference: US20260069601A1, “PHARMACEUTICAL COMPOSITION FOR INHALATION FOR PREVENTING OR TREATING RESPIRATORY DISEASE” (LEXENPHARM (SUZHOU) LIMITED, priority 2022, published 2026)
# Experiment: Stability test of indacaterol maleate-glycopyrronium bromide compositions at different pH (Example 7)
# Assay type: physicochemical
# Conditions: 4 weeks at 60° C.
# Experimental: The soft mist solutions of indatarol indacaterol maleate and glycopyrronium bromide at different pH were prepared as follows. Six 0.02 mM citric acid solution each 500 mL were prepared. pH was adjusted to 2.5, 3.0, 3.5, 4.0, 4.5, and 5.0 with 1 M (mol/L) of sodium hydroxide solution. Indacaterol maleate and glycopyrronium bromide were added. In order to improve the dissolution of indacaterol, all the drug solutions were ultrasonicated in a water bath at 30° C. for 20 min until no visible particles were found.
# The drug solutions were placed in glass bottles and stability test was performed to determine the contents of indacaterol and glycopyrronium bromide and total impurities in the samples at the initial state and after 4 weeks at 60° C.
SMILES,pH at which the active ingredient is stable,optimal (best) pH for stability
C[N+]1(C)CCC(OC(=O)C(O)(c2ccccc2)C2CCCC2)C1 (centres unmarked) [glycopyrronium bromide],2.5-3.5,
"CCc1cc2c(cc1CC)CC(NC[C@H](O)c1ccc(O)c3[nH]c(=O)ccc13)C2 [Indacaterol, indacaterol]",,3.5
